Values quoted from earlier work, collected in PubChem BioAssay AID1259409 (Chemical Carcinogenesis Research Information System (CCRIS), 2018).

Tested on: rodent chemically induced tumor inhibition, incidence and multiplicity
Test: CCRIS tumor inhibitor studies
Details: Dose [Inhibitor]: 0, Route [Inhibitor]: ORAL

C[C@]12CC[C@H](O)CC1=CC[C@@H]1[C@@H]2CC[C@]2(C)C(=O)CC[C@@H]12
tumour outcome (control, treated, inhibition, significance) (Carcinogen: N-BUTYL-N-(4-HYDROXYBUTYL)NITROSAMINE, 3817-11-6, 0.6% IN DIET BEGINNING 3 D POST CARCINOGEN TREATMENT AND CONTINUING FOR 32 WK (STUDY DURATION: 36 WK), Species: RAT, Strain/Sex: F344/MALE, Target Tissue: Type of Lesion: URINARY BLADDER: PAPILLOMA, Dose [Carcinogen]: 0.05% IN DRINKING WATER FOR 4 WK, Promoter: BUTYLATED HYDROXYANISOLE, 25013-16-5): 12/15 (80%), 6/15 (40%), 50%, p<0.05
tumour outcome (control, treated, inhibition, significance) (Carcinogen: N-METHYL-N'-NITRO-N-NITROSOGUANIDINE, 70-25-7, 55 PPM IN DIET FOR 6 MO BEGINNING 3 MO POST CARCINOGEN TREATMENT (STUDY DURATION: 9 MO), Species: FISH, Strain/Sex: RAINBOW TROUT/MALE,FEMALE, Target Tissue: Type of Lesion: STOMACH: TUMOR, Dose [Carcinogen]: 35 PPM IN WATER FOR 30 MIN ONCE, Promoter: NONE USED): 38%, 34%, 11%, not significant
tumour outcome (control, treated, inhibition, significance) (Carcinogen: N-METHYL-N'-NITRO-N-NITROSOGUANIDINE, 70-25-7, 55 PPM IN DIET FOR 6 MO BEGINNING 3 MO POST CARCINOGEN TREATMENT (STUDY DURATION: 9 MO), Species: FISH, Strain/Sex: RAINBOW TROUT/MALE,FEMALE, Target Tissue: Type of Lesion: SWIN BLADDER: TUMOR, Dose [Carcinogen]: 35 PPM IN WATER FOR 30 MIN ONCE, Promoter: NONE USED): 13%, 3%, 77%, p<0.05
tumour outcome (control, treated, inhibition, significance) (Carcinogen: N-METHYL-N'-NITRO-N-NITROSOGUANIDINE, 70-25-7, 111 PPM IN DIET FOR 6 MO BEGINNING 3 MO POST CARCINOGEN TREATMENT (STUDY DURATION: 9 MO), Species: FISH, Strain/Sex: RAINBOW TROUT/MALE,FEMALE, Target Tissue: Type of Lesion: STOMACH: TUMOR, Dose [Carcinogen]: 35 PPM IN WATER FOR 30 MIN ONCE, Promoter: NONE USED): 38%, 27%, 29%, not significant
tumour outcome (control, treated, inhibition, significance) (Carcinogen: N-METHYL-N'-NITRO-N-NITROSOGUANIDINE, 70-25-7, 111 PPM IN DIET FOR 6 MO BEGINNING 3 MO POST CARCINOGEN TREATMENT (STUDY DURATION: 9 MO), Species: FISH, Strain/Sex: RAINBOW TROUT/MALE,FEMALE, Target Tissue: Type of Lesion: SWIM BLADDER: TUMOR, Dose [Carcinogen]: 35 PPM IN WATER FOR 30 MIN ONCE, Promoter: NONE USED): 13%, 3%, 77%, p<0.05
tumour outcome (control, treated, inhibition, significance) (Carcinogen: N-METHYL-N'-NITRO-N-NITROSOGUANIDINE, 70-25-7, 222 PPM IN DIET FOR 6 MO BEGINNING 3 MO POST CARCINOGEN TREATMENT (STUDY DURATION: 9 MO), Species: FISH, Strain/Sex: RAINBOW TROUT/MALE,FEMALE, Target Tissue: Type of Lesion: STOMACH: TUMOR, Dose [Carcinogen]: 35 PPM IN WATER FOR 30 MIN ONCE, Promoter: NONE USED): 38%, 31%, 18%, not significant
tumour outcome (control, treated, inhibition, significance) (Carcinogen: N-METHYL-N'-NITRO-N-NITROSOGUANIDINE, 70-25-7, 222 PPM IN DIET FOR 6 MO BEGINNING 3 MO POST CARCINOGEN TREATMENT (STUDY DURATION: 9 MO), Species: FISH, Strain/Sex: RAINBOW TROUT/MALE,FEMALE, Target Tissue: Type of Lesion: SWIM BLADDER: TUMOR, Dose [Carcinogen]: 35 PPM IN WATER FOR 30 MIN ONCE, Promoter: NONE USED): 13%, 3%, 77%, p<0.05
tumour outcome (control, treated, inhibition, significance) (Carcinogen: N-METHYL-N'-NITRO-N-NITROSOGUANIDINE, 70-25-7, 444 PPM IN DIET FOR 6 MO BEGINNING 3 MO POST CARCINOGEN TREATMENT (STUDY DURATION: 9 MO), Species: FISH, Strain/Sex: RAINBOW TROUT/MALE,FEMALE, Target Tissue: Type of Lesion: STOMACH: TUMOR, Dose [Carcinogen]: 35 PPM IN WATER FOR 30 MIN ONCE, Promoter: NONE USED): 38%, 36%, 5%, not significant
tumour outcome (control, treated, inhibition, significance) (Carcinogen: N-METHYL-N'-NITRO-N-NITROSOGUANIDINE, 70-25-7, 444 PPM IN DIET FOR 6 MO BEGINNING 3 MO POST CARCINOGEN TREATMENT (STUDY DURATION: 9 MO), Species: FISH, Strain/Sex: RAINBOW TROUT/MALE,FEMALE, Target Tissue: Type of Lesion: SWIM BLADDER: TUMOR, Dose [Carcinogen]: 35 PPM IN WATER FOR 30 MIN ONCE, Promoter: NONE USED): 13%, 8%, 38%, not significant
tumour outcome (control, treated, inhibition, significance) (Carcinogen: N-METHYL-N'-NITRO-N-NITROSOGUANIDINE, 70-25-7, 888 PPM IN DIET FOR 6 MO BEGINNING 3 MO POST CARCINOGEN TREATMENT (STUDY DURATION: 9 MO), Species: FISH, Strain/Sex: RAINBOW TROUT/MALE,FEMALE, Target Tissue: Type of Lesion: STOMACH: TUMOR, Dose [Carcinogen]: 35 PPM IN WATER FOR 30 MIN ONCE, Promoter: NONE USED): 38%, 26%, 32%, not significant
tumour outcome (control, treated, inhibition, significance) (Carcinogen: N-METHYL-N'-NITRO-N-NITROSOGUANIDINE, 70-25-7, 888 PPM IN DIET FOR 6 MO BEGINNING 3 MO POST CARCINOGEN TREATMENT (STUDY DURATION: 9 MO), Species: FISH, Strain/Sex: RAINBOW TROUT/MALE,FEMALE, Target Tissue: Type of Lesion: SWIM BLADDER: TUMOR, Dose [Carcinogen]: 35 PPM IN WATER FOR 30 MIN ONCE, Promoter: NONE USED): 13%, 6%, 54%, not significant
tumour outcome (control, treated, inhibition, significance) (Carcinogen: N-METHYL-N-NITROSOUREA, 684-93-5, 0.1% IN DIET FOR DURATION OF STUDY BEGINNING 1 WK PRIOR TO CARCINOGEN DOSE (STUDY DURATION: 187 D), Species: RAT, Strain/Sex: SPRAGUE-DAWLEY/FEMALE, Target Tissue: Type of Lesion: MAMMARY GLAND: CARCINOMA, Dose [Carcinogen]: 50 MG/KG ONCE AT 50 D OF AGE, Promoter: NONE USED): 100%, 68%, 32%, p<0.05
tumour outcome (control, treated, inhibition, significance) (Carcinogen: N-METHYL-N-NITROSOUREA, 684-93-5, 0.2% IN DIET FOR 2 WK BEGINNING 1 WK PRIOR TO CARCINOGEN DOSE (STUDY DURATION: 187 D), Species: RAT, Strain/Sex: SPRAGUE-DAWLEY/FEMALE, Target Tissue: Type of Lesion: MAMMARY GLAND: CARCINOMA, Dose [Carcinogen]: 50 MG/KG ONCE AT 50 D OF AGE, Promoter: NONE USED): 100%, 100%, 0%, not significant
tumour outcome (control, treated, inhibition, significance) (Carcinogen: N-METHYL-N-NITROSOUREA, 684-93-5, 0.2% IN DIET FOR DURATION OF STUDY BEGINNING 1 WK POST CARCINOGEN DOSE (STUDY DURATION: 180 D), Species: RAT, Strain/Sex: SPRAGUE-DAWLEY/FEMALE, Target Tissue: Type of Lesion: MAMMARY GLAND: CARCINOMA, Dose [Carcinogen]: 50 MG/KG ONCE AT 50 D OF AGE, Promoter: NONE USED): 100%, 67%, 33%, p<0.05
tumour outcome (control, treated, inhibition, significance) (Carcinogen: N-METHYL-N-NITROSOUREA, 684-93-5, 0.2% IN DIET FOR DURATION OF STUDY BEGINNING 1 WK PRIOR TO CARCINOGEN DOSE (STUDY DURATION: 187 D), Species: RAT, Strain/Sex: SPRAGUE-DAWLEY/FEMALE, Target Tissue: Type of Lesion: MAMMARY GLAND: CARCINOMA, Dose [Carcinogen]: 50 MG/KG ONCE AT 50 D OF AGE, Promoter: NONE USED): 100%, 48%, 52%, p<0.05
